Results published in paper PMC8667902 (Journal of Enzyme Inhibition and Medicinal Chemistry, 2021).
Several values for one entry are separate records, joined by “and”; a condition that tells them apart may be missing. Equal entries are not always repeated. Where two headings read alike, the source gives them in different places.

Tests used:
ratAChE = molecular target: T1, ratAChE (Rattus norvegicus, UniProt P37136); experiment: Ellman's method, AChE from rat cortex homogenate; format: biochemical; conditions: for SI = Selectivity index = IC50 (BuChE)/IC50 (AChE): ratBuChE over rat AChE
T1 sequence (P37136 32-614): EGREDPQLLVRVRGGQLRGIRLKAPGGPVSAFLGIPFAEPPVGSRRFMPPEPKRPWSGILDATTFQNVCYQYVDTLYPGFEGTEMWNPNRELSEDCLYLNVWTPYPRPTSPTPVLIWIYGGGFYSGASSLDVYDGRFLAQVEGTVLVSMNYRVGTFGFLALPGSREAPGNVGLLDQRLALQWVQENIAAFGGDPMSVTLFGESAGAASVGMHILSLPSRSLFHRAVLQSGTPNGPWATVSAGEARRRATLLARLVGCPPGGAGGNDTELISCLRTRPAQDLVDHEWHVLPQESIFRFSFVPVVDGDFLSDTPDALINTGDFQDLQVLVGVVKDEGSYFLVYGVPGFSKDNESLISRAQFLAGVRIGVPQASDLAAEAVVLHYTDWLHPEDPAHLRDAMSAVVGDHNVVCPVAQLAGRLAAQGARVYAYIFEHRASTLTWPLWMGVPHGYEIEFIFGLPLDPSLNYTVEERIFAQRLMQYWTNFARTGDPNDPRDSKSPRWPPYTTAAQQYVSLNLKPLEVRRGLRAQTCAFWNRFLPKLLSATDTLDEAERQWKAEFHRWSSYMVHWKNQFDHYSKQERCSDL

eeAChE = eeAChE (Electrophorus electricus, UniProt O42275); experiment: Ellman's method, electric eel AChE; format: biochemical
Sequence of eeAChE (O42275 24-633): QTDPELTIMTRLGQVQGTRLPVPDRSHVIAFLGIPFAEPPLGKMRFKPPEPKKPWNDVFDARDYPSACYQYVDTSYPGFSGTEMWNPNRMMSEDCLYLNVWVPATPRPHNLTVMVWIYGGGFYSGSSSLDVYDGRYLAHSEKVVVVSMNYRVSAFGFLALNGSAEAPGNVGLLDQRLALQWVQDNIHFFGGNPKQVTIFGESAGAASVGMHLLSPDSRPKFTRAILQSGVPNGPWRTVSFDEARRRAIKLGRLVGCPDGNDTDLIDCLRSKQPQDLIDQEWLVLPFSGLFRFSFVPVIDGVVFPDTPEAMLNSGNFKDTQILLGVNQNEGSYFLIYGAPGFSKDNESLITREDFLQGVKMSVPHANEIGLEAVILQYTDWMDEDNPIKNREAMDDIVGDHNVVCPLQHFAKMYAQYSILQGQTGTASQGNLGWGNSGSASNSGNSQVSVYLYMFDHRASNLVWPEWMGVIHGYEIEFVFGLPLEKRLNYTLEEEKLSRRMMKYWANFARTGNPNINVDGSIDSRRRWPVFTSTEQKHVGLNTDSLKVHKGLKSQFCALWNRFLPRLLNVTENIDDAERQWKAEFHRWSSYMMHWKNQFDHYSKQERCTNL

ratBuChE = ratBuChE (Rattus norvegicus, UniProt Q9JKC1); experiment: Ellman's method, BuChE from rat serum; format: biochemical
Sequence of ratBuChE (Q9JKC1 24-597): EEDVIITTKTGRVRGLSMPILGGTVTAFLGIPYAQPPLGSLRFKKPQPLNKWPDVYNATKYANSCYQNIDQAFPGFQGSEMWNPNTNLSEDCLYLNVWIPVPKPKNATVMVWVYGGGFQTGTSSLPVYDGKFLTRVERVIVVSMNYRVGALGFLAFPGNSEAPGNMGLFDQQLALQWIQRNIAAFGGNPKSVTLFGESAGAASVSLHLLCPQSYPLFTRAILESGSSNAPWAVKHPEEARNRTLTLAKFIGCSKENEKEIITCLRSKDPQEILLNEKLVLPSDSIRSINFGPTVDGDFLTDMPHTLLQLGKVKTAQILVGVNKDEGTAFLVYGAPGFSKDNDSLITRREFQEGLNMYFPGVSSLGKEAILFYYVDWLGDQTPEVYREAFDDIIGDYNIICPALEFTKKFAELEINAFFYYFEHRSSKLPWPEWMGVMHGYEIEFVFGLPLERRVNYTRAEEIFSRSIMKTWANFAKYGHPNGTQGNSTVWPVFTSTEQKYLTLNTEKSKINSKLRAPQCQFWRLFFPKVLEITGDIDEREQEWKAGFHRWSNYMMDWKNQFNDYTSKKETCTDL

[1] = Oxygen Radicals Absorbance Capacity by Fluorescence; conditions: for ORAC: Trolox as reference
Aβ1–42 [2] = molecular target: T2, Aβ1–42 (Homo sapiens, UniProt P05067); experiment: Inhibition of self-induced Aβ1–42 aggregation; format: biochemical; conditions: ThT assay; for inhibition at 25 µM: read-out: Inhibition of Aβ1–42 aggregation (%) Self-induced, 25 μM
T2 sequence (P05067 672-713): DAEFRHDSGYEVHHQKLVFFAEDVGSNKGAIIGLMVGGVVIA

Aβ1–42 [3] = molecular target: T2, Aβ1–42; experiment: Inhibition of Cu2+-induced Aβ1–42 aggregation; format: biochemical; conditions: read-out: Inhibition of Aβ1–42 aggregation (%) Cu^2+-induced
Aβ1–42 fibrils [4] = molecular target: T3, Aβ1–42 fibrils (Homo sapiens, UniProt P05067); experiment: Disaggregation of self-induced Aβ1–42 aggregation; format: biochemical; conditions: 25 μM; ThT assay
T3 sequence (P05067 672-713): as above

Aβ1–42 fibrils [5] = molecular target: T3, Aβ1–42 fibrils; experiment: Disaggregation of Cu2+-induced Aβ1–42 aggregation; format: biochemical
huMAO-B = molecular target: T4, huMAO-B (Homo sapiens, UniProt P27338); experiment: biochemical
T4 sequence (P27338 1-520): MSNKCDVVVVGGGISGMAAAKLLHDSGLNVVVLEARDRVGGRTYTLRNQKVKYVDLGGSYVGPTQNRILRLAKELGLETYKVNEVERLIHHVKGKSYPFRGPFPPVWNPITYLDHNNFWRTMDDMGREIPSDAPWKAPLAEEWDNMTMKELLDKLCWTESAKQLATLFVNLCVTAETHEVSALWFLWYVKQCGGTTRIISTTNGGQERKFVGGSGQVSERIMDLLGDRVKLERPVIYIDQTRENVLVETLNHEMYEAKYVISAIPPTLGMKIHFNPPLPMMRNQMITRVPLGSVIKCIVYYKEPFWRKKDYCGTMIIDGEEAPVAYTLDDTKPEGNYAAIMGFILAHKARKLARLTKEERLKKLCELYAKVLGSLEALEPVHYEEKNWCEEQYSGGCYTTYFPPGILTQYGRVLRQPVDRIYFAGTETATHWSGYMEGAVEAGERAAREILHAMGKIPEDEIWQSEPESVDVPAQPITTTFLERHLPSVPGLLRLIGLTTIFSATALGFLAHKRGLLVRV

huMAO-A = molecular target: T5, huMAO-A (Homo sapiens, UniProt P21397); experiment: huMAO-A inhibition, fluorescence method; format: biochemical
T5 sequence (P21397 1-527): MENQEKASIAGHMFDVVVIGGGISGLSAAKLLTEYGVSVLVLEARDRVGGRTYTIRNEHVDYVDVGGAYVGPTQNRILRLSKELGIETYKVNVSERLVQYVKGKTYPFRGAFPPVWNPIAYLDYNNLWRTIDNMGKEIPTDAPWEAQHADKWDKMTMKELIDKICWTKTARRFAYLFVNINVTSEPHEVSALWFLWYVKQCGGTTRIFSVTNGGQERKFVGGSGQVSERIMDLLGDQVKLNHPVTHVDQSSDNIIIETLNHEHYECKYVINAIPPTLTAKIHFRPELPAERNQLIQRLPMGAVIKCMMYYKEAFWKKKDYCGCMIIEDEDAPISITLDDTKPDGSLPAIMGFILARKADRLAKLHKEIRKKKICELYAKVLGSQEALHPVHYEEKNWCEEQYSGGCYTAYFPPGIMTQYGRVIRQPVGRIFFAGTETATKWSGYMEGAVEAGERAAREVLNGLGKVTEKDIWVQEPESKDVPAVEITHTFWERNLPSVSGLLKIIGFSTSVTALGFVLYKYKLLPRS

SMILES | IC50 (ratAChE) | SI = Selectivity index = IC50 (BuChE)/IC50 (AChE) (ratAChE) | IC50 (eeAChE) | IC50 (ratBuChE) | ORAC [1] | inhibition at 25 µM (Aβ1–42 [2]) | inhibition at 25 µM (Aβ1–42 [3]) | Disaggregation of Aβ1–42 aggregation (%) Self-induced (Aβ1–42 fibrils [4]) | Disaggregation of Aβ1–42 aggregation (%) Cu^2+-induced (Aβ1–42 fibrils [5]; 25 μM, ThT assay) | IC50 (huMAO-B) | SI = selectivity index = IC50 (hMAO-A)/IC50 (hMAO-B) (huMAO-B) | IC50 (huMAO-A) | ORAC-FL value ([1]; Trolox equivalents) | inhibition at 10 µM (huMAO-B; read-out: MAO-B percent inhibition rate) | inhibition at 10 µM (huMAO-A; read-out: MAO-A percent inhibition rate) | Disaggregation of Aβ1–42 aggregation (%) Cu^2+-induced (Aβ1–42 fibrils [5]) | Inhibition of Aβ1–42 aggregation (%) Self-induced (Aβ1–42 [2]; 25 μM)
CCN(CCCCCCOc1ccc(/C=C/C(=O)c2c(O)cc(OC)c(OC)c2OC)cc1)Cc1ccccc1OC [Compound 9f, (E)-3-(4-(6-(ethyl(2-methoxybenzyl)amino)hexyloxy)phenyl)-1-(6-hydroxy-2,3,4-trimethoxyphenyl)prop-2-en-1-one] | 0.61 ± 0.01 µM | >819.7 | 1.78 ± 0.02 µM | > 500 µM | 0.96 ± 0.01 μM of Trolox equivalent/μM of compounds | 69 ± 0.01% | 75 ± 0.02% | 62.8 ± 0.03% | 81.4 ± 0.68% | 7.2 ± 0.03 µM | 6.1 | 43.6 ± 0.68 µM |  |  |  |  | 
CCN(CC)CCCCOc1ccc(/C=C/C(=O)c2c(O)cc(OC)c(OC)c2OC)cc1 [Compound 10, (E)-3-(4-(4-(diethylamino)butoxy)phenyl)-1-(6-hydroxy-2,3,4-trimethoxyphenyl)prop-2-en-1-one] | 4.94 ± 0.02 µM | >101.2 | 2.72 ± 0.02 µM | > 500 µM | 1.02 ± 0.01 μM of Trolox equivalent/μM of compounds | 37.7 ± 0.02% | 49.4 ± 0.02% | 25.6 ± 0.03% | 26.2% and 26.2 ± 0.28% | 14.6 ± 0.03 µM | 1.9 | 27.9 ± 0.28 µM |  |  |  |  | 
COc1cc(O)c(C(=O)/C=C/c2ccc(O)cc2)c(OC)c1O [Compound 16, 3′,4,6′-Trihydroxy-2′,4′-dimethoxy-chalcone] | > 500 µM |  | > 500 µM | > 500 µM | 7.8 ± 0.01 μM of Trolox equivalent/μM of compounds | 27.7 ± 0.02% | 38.1 ± 0.01% |  |  |  |  | 15.4 ± 0.16 µM | 7.8 eq |  |  |  | 
COc1ccccc1CN(C)CCCOc1ccc(/C=C/C(=O)c2c(O)cc(OC)c(O)c2OC)cc1 [Compound 17a, (E)-1-(3,6-dihydroxy-2,4-dimethoxyphenyl)-3-(4-(3-((2-methoxybenzyl)(methyl)amino)propoxy)phenyl)prop-2-en-1-one] | 3.45 ± 0.03 µM | 94.5 | 2.3 ± 0.01 µM | 326 ± 10.7 µM | 3.1 ± 0.02 μM of Trolox equivalent/μM of compounds | 67.4 ± 0.04% | 91.1 ± 0.01% | 29.9 ± 0.03% | 84.6 ± 0.03% |  |  |  |  | 4.4% | 18.2% |  | 
COc1cc(/C=C/C(=O)CC(=O)/C=C/c2ccc(O)c(OC)c2)ccc1O [Curcumin, reference compound] |  |  |  |  |  | 47.3 ± 0.01% | 76.5 ± 0.02% |  |  |  |  |  |  |  |  | 56.5 ± 0.21% | 
COc1cc2c(cc1OC)C(=O)C(CC1CCN(Cc3ccccc3)CC1)C2 (stereo not drawn) [Donepezil, reference compound] |  |  |  |  |  | < 5% |  |  |  |  |  |  |  |  |  |  | n.a.^g (no active, meaning inhibition rate was <5.0% at 25 μM)
